# In patent publication US11566007B2, “Ras inhibitors” (Revolution Medicines, Inc., priority 2019, dated 2023):
# Experiments:
# NCI-H358 (K-Ras G12C) = experiment: CellTiter-Glo cell viability assay, NCI-H358; format: cell-based, human; settings: Homo sapiens, NCI-H358, 120 h, NCI-H358, 5-day treatment; class symbols; read-out: Additional H358 Cell Viability assay data (K-Ras G12C, IC50)
# Procedure, shortened: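 Compounds dispensed directly onto seeded K-Ras mutant cells; plates read on day 5 after ~30 min equilibration to room temperature, by CellTiter-Glo luminescence. Signal normalized as (sample/mean DMSO)×100, then fitted to a four-parameter logistic curve.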
# K-Ras G12C = K-Ras G12C (Homo sapiens (Human), UniProt P01116+P62937, G12C); experiment: Ras-Raf (BRAF RBD) disruption / FRET / MOA assay, KRAS G12C; format: biochemical; settings: KRAS G12C; Ras-Raf disruption/FRET/MOA assay; read-out: IC50* KRAS G12C FRET data
# Sequence of K-Ras G12C (P01116-2 other isoform, or with tags, fused parts or gaps G12C): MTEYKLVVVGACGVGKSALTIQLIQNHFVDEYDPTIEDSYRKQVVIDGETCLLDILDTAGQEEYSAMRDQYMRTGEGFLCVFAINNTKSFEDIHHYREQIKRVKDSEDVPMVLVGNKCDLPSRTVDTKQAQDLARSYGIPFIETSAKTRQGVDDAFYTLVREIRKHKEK
# Sequence of K-Ras G12C (P62937 whole entry): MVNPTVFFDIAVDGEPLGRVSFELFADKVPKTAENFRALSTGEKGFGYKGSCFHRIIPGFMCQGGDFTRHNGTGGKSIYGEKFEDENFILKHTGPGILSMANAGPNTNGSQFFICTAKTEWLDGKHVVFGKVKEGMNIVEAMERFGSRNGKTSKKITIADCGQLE
# Procedure, shortened: (§1)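 TR-FRET read-out: a drop in ratio relative to DMSO wells marks disruption of the Ras:RAF complex, reported as IC50. Compounds (3-fold series, 10 points, top 30 μM final) incubated 3 h at 25° C before Eu-anti-His 10 nM and APC-anti-GST 50 nM, 1.5 h more.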
# K-Ras G13C = K-Ras G13C (Homo sapiens (Human), UniProt P01116+P62937, G13C); experiment: Ras-Raf (BRAF RBD) disruption / FRET / MOA assay, KRAS G13C; format: biochemical; settings: KRAS G13C; Ras-Raf disruption/FRET/MOA assay; read-out: IC50* KRAS G13C FRET data
# Sequence of K-Ras G13C (P01116-2 other isoform, or with tags, fused parts or gaps G13C): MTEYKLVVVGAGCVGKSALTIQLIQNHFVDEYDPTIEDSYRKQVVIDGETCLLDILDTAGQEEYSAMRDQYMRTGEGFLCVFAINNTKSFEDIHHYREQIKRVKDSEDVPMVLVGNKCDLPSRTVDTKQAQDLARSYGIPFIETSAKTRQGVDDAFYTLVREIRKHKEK
# Sequence of K-Ras G13C (P62937 whole entry): as the sequence (P62937 whole entry) above
# Procedure, shortened: as §1
# KRAS G12S = KRAS G12S (Homo sapiens (Human), UniProt P01116+P62937, G12S); experiment: Ras-Raf (BRAF RBD) disruption / FRET / MOA assay, KRAS G12S; format: biochemical; settings: Ras-Raf disruption/FRET/MOA assay; class symbols; read-out: KRAS G12S FRET data IC50
# Sequence of KRAS G12S (P01116-2 other isoform, or with tags, fused parts or gaps G12S): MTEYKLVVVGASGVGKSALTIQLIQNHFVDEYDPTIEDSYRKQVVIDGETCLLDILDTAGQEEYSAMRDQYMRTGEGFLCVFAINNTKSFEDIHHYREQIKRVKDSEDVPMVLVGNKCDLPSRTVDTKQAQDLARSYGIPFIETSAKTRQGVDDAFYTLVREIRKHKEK
# Sequence of KRAS G12S (P62937 whole entry): as the sequence (P62937 whole entry) above
# Procedure, shortened: as §1
# KRAS G12D = KRAS G12D (Homo sapiens (Human), UniProt P01116+P62937, G12D); experiment: Ras-Raf (BRAF RBD) disruption / FRET / MOA assay, KRAS G12D; format: biochemical; settings: Ras-Raf disruption/FRET/MOA assay; class symbols; read-out: KRAS G12D FRET data IC50
# Sequence of KRAS G12D (P01116-2 other isoform, or with tags, fused parts or gaps G12D): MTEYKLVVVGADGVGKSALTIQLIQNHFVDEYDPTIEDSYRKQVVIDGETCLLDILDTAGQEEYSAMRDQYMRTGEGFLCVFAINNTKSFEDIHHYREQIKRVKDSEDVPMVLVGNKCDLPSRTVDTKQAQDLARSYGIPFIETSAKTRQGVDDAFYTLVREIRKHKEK
# Sequence of KRAS G12D (P62937 whole entry): as the sequence (P62937 whole entry) above
# Procedure, shortened: as §1
# KRAS G12V = KRAS G12V (Homo sapiens (Human), UniProt P01116+P62937, G12V); experiment: Ras-Raf (BRAF RBD) disruption / FRET / MOA assay, KRAS G12V; format: biochemical; settings: read-out: IC50* KRAS G12V FRET data
# Sequence of KRAS G12V (P01116-2 other isoform, or with tags, fused parts or gaps G12V): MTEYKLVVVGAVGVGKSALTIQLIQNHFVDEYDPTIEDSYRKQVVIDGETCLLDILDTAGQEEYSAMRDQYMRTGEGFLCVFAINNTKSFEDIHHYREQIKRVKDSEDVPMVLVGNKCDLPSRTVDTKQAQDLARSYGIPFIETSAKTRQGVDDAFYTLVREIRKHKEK
# Sequence of KRAS G12V (P62937 whole entry): as the sequence (P62937 whole entry) above
# Procedure, shortened: as §1
# KRAS WT = KRAS WT (Homo sapiens (Human), UniProt P01116+P62937); experiment: Ras-Raf (BRAF RBD) disruption / FRET / MOA assay, KRAS WT; format: biochemical; settings: read-out: IC50* KRAS WT FRET data
# Sequence of KRAS WT (P01116-2 other isoform, or with tags, fused parts or gaps): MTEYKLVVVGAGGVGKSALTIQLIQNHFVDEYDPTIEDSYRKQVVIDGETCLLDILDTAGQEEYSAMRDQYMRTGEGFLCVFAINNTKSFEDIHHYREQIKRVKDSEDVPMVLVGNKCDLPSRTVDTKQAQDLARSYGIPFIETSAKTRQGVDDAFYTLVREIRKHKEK
# Sequence of KRAS WT (P62937 whole entry): as the sequence (P62937 whole entry) above
# Procedure, shortened: as §1
# KRAS G13D = KRAS G13D (Homo sapiens (Human), UniProt P01116+P62937, G13D); experiment: Ras-Raf (BRAF RBD) disruption / FRET / MOA assay, KRAS G13D; format: biochemical; settings: read-out: IC50* KRAS G13D FRET data
# Sequence of KRAS G13D (P01116-2 other isoform, or with tags, fused parts or gaps G13D): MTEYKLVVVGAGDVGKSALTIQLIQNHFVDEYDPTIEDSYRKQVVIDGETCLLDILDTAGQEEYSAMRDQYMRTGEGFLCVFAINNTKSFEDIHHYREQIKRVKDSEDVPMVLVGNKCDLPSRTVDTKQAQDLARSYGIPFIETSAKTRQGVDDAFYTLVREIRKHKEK
# Sequence of KRAS G13D (P62937 whole entry): as the sequence (P62937 whole entry) above
# Procedure, shortened: as §1
# KRAS Q61H = KRAS Q61H (Homo sapiens (Human), UniProt P01116+P62937, Q61H); experiment: Ras-Raf (BRAF RBD) disruption / FRET / MOA assay, KRAS Q61H; format: biochemical; settings: Ras-Raf disruption/FRET/MOA assay; class symbols; read-out: KRAS Q61H FRET data IC50
# Sequence of KRAS Q61H (P01116-2 other isoform, or with tags, fused parts or gaps Q61H): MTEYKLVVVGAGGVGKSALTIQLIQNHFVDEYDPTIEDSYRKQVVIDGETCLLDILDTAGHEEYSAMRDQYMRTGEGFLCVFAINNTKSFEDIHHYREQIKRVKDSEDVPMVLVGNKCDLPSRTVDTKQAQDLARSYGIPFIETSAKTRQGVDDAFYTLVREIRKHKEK
# Sequence of KRAS Q61H (P62937 whole entry): as the sequence (P62937 whole entry) above
# Procedure, shortened: (§2)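 Compounds were tested as a 10-point 3-fold dilution series from 30 μM final for their ability to drive ternary complex formation between nucleotide-loaded Ras and cyclophilin A, displacing the BRAF RBD. After 3 h at 25° C., anti-His Eu-W1024 (10 nM) and anti-GST allophycocyanin (50 nM) were added for 1.5 h. A TR-FRET ratio decrease versus DMSO gave IC50.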
# NRAS G12C = NRAS G12C (Homo sapiens (Human), UniProt P01111+P62937, G12C); experiment: Ras-Raf (BRAF RBD) disruption / FRET / MOA assay, NRAS G12C; format: biochemical; settings: read-out: IC50* NRAS G12C FRET data
# Sequence of NRAS G12C (P01111 whole entry G12C): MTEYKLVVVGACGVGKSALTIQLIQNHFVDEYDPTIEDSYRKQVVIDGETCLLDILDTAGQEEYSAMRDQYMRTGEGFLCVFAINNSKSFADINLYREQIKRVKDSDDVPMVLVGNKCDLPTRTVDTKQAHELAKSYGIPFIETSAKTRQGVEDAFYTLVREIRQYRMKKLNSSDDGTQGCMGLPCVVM
# Sequence of NRAS G12C (P62937 whole entry): as the sequence (P62937 whole entry) above
# Procedure, shortened: as §1
# NRAS Q61R = NRAS Q61R (Homo sapiens (Human), UniProt P01111+P62937, Q61R); experiment: Ras-Raf (BRAF RBD) disruption / FRET / MOA assay, NRAS Q61R; format: biochemical; settings: NRAS Q61R; Ras-Raf disruption/FRET/MOA assay; read-out: IC50* NRAS Q61R FRET data
# Sequence of NRAS Q61R (P01111 whole entry Q61R): as the sequence (P01111 whole entry G12C) above, with C12G, Q61R counted along it
# Sequence of NRAS Q61R (P62937 whole entry): as the sequence (P62937 whole entry) above
# Procedure, shortened: as §2
# NRAS WT = NRAS WT (Homo sapiens (Human), UniProt P01111+P62937); experiment: Ras-Raf (BRAF RBD) disruption / FRET / MOA assay, NRAS WT; format: biochemical; settings: read-out: IC50* NRAS WT FRET data
# Sequence of NRAS WT (P01111 whole entry): as the sequence (P01111 whole entry G12C) above, with C12G counted along it
# Sequence of NRAS WT (P62937 whole entry): as the sequence (P62937 whole entry) above
# Procedure, shortened: as §2
Structure (SMILES),IC50 (NCI-H358 (K-Ras G12C)) [nM],IC50 (K-Ras G12C) [nM],IC50 (K-Ras G13C) [nM],IC50 (KRAS G12S) [nM],IC50 (KRAS G12D) [nM],IC50 (KRAS G12V) [nM],IC50 (KRAS WT) [nM],IC50 (KRAS G13D) [nM],IC50 (KRAS Q61H) [nM],IC50 (NRAS G12C) [nM],IC50 (NRAS Q61R) [nM],IC50 (NRAS WT) [nM]
"C=CC(=O)N1CC[C@]2(COCCN2C(=O)N(C)[C@H](C(=O)N[C@H]2Cc3nc(cs3)-c3ccc4c(c3)c(c(-c3cccnc3[C@H](C)OC)n4CC)CC(C)(C)COC(=O)[C@@H]3CCCN(N3)C2=O)C(C)C)C1 (atropisomer, axis not shown) [Example A676]",10 to 100,100 to 1000,1000 to 10000,1000 to 10000,1000 to 10000,1000 to 10000,100 to 1000,1000 to 10000,10 to 100,10 to 100,100 to 1000,100 to 1000
"C=CC(=O)N1CC2(CCN(C(=O)N(C)[C@H](C(=O)N[C@H]3Cc4cccc(c4)-c4ccc5c(c4)c(c(-c4cccnc4[C@H](C)OC)n5CC)CC(C)(C)COC(=O)[C@@H]4CCCN(N4)C3=O)C(C)C)CC2)C1 (atropisomer, axis not shown) [Example A680]",10 to 100,100 to 1000,10 to 100,100 to 1000,1000 to 10000,100 to 1000,100 to 1000,1000 to 10000,100 to 1000,100 to 1000,100 to 1000,100 to 1000
"C=CC(=O)N1CC[C@@H]2[C@H](C1)CN2C(=O)N(C)[C@H](C(=O)N[C@H]1Cc2nc(cs2)-c2ccc3c(c2)c(c(-c2cccnc2[C@H](C)OC)n3CC)CC(C)(C)COC(=O)[C@@H]2CCCN(N2)C1=O)C(C)C (atropisomer, axis not shown) [Example A688]",100 to 1000,100 to 1000,100 to 1000,1000 to 10000,1000 to 10000,1000 to 10000,100 to 1000,1000 to 10000,100 to 1000,100 to 1000,100 to 1000,100 to 1000
"C=CC(=O)N1CCC2(CCCN(C(=O)N(C)[C@H](C(=O)N[C@H]3Cc4nc(cs4)-c4ccc5c(c4)c(c(-c4cccnc4[C@H](C)OC)n5CC)CC(C)(C)COC(=O)[C@@H]4CCCN(N4)C3=O)C(C)C)C2)CC1 (atropisomer, axis not shown) [Example A696]",100 to 1000,100 to 1000,100 to 1000,100 to 1000,100 to 1000,100 to 1000,100 to 1000,1000 to 10000,10 to 100,100 to 1000,100 to 1000,100 to 1000
"CCn1c(-c2cccnc2[C@H](C)OC)c2c3cc(ccc31)-c1cccc(c1)C[C@H](NC(=O)[C@@H](COC1CN(C(=O)C#CC(C)(C)O)C1)C(C)C)C(=O)N1CCC[C@H](N1)C(=O)OCC(C)(C)C2 (atropisomer, axis not shown) [Example A708]",10 to 100,100 to 1000,1000 to 10000,> 10000,> 10000,1000 to 10000,1000 to 10000,> 10000,1000 to 10000,100 to 1000,> 10000,1000 to 10000
"CCn1c(-c2cccnc2[C@H](C)OC)c2c3cc(ccc31)-c1csc(n1)C[C@H](NC(=O)[C@H](C(C)C)N(C)C(=O)N1CCN(C(=O)/C=C/CN(C)C)C[C@@H]1C)C(=O)N1CCC[C@H](N1)C(=O)OCC(C)(C)C2 (atropisomer, axis not shown) [Example A709]",10 to 100,10 to 100,100 to 1000,100 to 1000,100 to 1000,100 to 1000,100 to 1000,100 to 1000,10 to 100,10 to 100,100 to 1000,10 to 100
"CCn1c(-c2cccnc2[C@H](C)OC)c2c3cc(ccc31)-c1csc(n1)C[C@H](NC(=O)[C@H](C(C)C)N(C)C(=O)N1CC(N(C)C(=O)/C=C/CN(C)C)C1)C(=O)N1CCC[C@H](N1)C(=O)OCC(C)(C)C2 (atropisomer, axis not shown) [Example A710]",10 to 100,10 to 100,100 to 1000,100 to 1000,100 to 1000,100 to 1000,100 to 1000,100 to 1000,10 to 100,10 to 100,100 to 1000,100 to 1000
"C=C(OC)C(=O)N1CC(N(C)C(=O)N(C)[C@H](C(=O)N[C@H]2Cc3nc(cs3)-c3ccc4c(c3)c(c(-c3cccnc3[C@H](C)OC)n4CC)CC(C)(C)COC(=O)[C@@H]3CCCN(N3)C2=O)C(C)C)C1 (atropisomer, axis not shown) [Example A713]",10 to 100,100 to 1000,1000 to 10000,100 to 1000,1000 to 10000,1000 to 10000,100 to 1000,1000 to 10000,100 to 1000,100 to 1000,100 to 1000,100 to 1000
"C=CC(=O)N1CC[C@H](C(=O)N(C)[C@H](C(=O)N[C@H]2CN3CCC=C(C3)c3ccc4c(c3)c(c(-c3cccnc3[C@H](C)OC)n4CC)CC(C)(C)COC(=O)[C@@H]3CCCN(N3)C2=O)C(C)C)C1 (atropisomer, axis not shown) [Example A716, (3S)-1-acryloyl-N-((2S)-1-(((6^3S,4S)-1^1-ethyl-1^2-(2-((S)-1-methoxyethyl)pyridin-3-yl)-10,10-dimethyl-5,7-dioxo-2^1,2^2,2^3,2^6,6^1,6^2,6^3,6^4,6^5,6^6-decahydro-1^1H-8-oxa-1(5,3)-indola-6(1,3)-pyridazina-2(5,1)-pyridinacycloundecaphane-4-yl)amino)-3-methyl-1-oxobutan-2-yl)-N-methylpyrrolidine-3-carboxamide]",10 to 100,100 to 1000,1000 to 10000,1000 to 10000,> 10000,1000 to 10000,1000 to 10000,> 10000,1000 to 10000,100 to 1000,> 10000,1000 to 10000
"CCn1c(-c2cccnc2[C@H](C)OC)c2c3cc(ccc31)-c1nc(nn1C)C[C@H](NC(=O)[C@@H](COC1CN(C(=O)C#CC(C)(C)N(C)C)C1)C(C)C)C(=O)N1CCC[C@H](N1)C(=O)OCC(C)(C)C2 (atropisomer, axis not shown) [Example A720, (2R)-2-(((1-(4-(dimethylamino)-4-methylpent-2-ynoyl)azetidin-3-yl)oxy)methyl)-N-((6^3S,4S,Z)-1^1-ethyl-1^2-(2-((S)-1-methoxyethyl)pyridin-3-yl)-2^1,10,10-trimethyl-5,7-dioxo-6^1,6^2,6^3,6^4,6^5,6^6-hexahydro-1^1H,2^1H-8-oxa-1(5,3)-indola-6(1,3)-pyridazina-2(5,3)-triazolacycloundecaphane-4-yl)-3-methylbutanamide]",10 to 100,10 to 100,1000 to 10000,1000 to 10000,> 10000,1000 to 10000,1000 to 10000,1000 to 10000,1000 to 10000,10 to 100,1000 to 10000,1000 to 10000
